Measurements published in patent publication US8809341B2, “2,4-pyrimidinediamine compounds and uses as anti-proliferative agents” (Rigel Pharmaceuticals, Inc., priority 2003, dated 2014).
Values belong to the compound of their own block, whether it stands above or below them.

Tests used:
[1] = tested on: A549 cells; test: in vitro antiproliferation assay, A549 (lung); type: cell-based
Summary of the method: (§1)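 IC50 values came from standard antiproliferation testing in cultured tumour cells; the A549 and H1299 lines are of lung origin.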

[2] = tested on: H1299 cells; test: in vitro antiproliferation assay, H1299 (lung); type: cell-based
Summary of the method: as §1

[3] = A549 (lung) cells, in vitro antiproliferation
[4] = H1299 (lung) cells, in vitro antiproliferation
[5] = IC50 class against A549 (lung) tumor cells
[6] = IC50 class against H1299 (lung) tumor cells
[7] = A549 (lung) cells, antiproliferation
[8] = H1299 (lung) cells, antiproliferation
[9] = Homo sapiens, IC50 class against A549 (lung) tumor cells
[10] = Homo sapiens, NCI-H1299, IC50 class against H1299 (lung) tumor cells
[11] = Table 5, in vitro antiproliferation, A549 (lung) cells
[12] = Table 5, in vitro antiproliferation, H1299 (lung) cells
[13] = in vitro antiproliferation, A549 (lung) cells, Table 4, compounds with no designated stereochemistry tested as racemate
[14] = in vitro antiproliferation, H1299 (lung) cells, Table 4, compounds with no designated stereochemistry tested as racemate
[15] = Table 7, in vitro antiproliferation, A549 (lung) cells
[16] = Table 7, in vitro antiproliferation, H1299 (lung) cells

Structure (SMILES): CNC(=O)COc1cccc(Nc2ncc(F)c(Nc3ccc(Cl)c(Cl)c3)n2)c1 [compound 697]
IC50 [1, 3]: ≤ 20 µM
IC50 [2, 4]: ≤ 20 µM

Structure (SMILES): COc1c(C)cc(Nc2ncc(F)c(Nc3cccc(Nc4ncc[nH]4)c3)n2)cc1C [compound 1050]
IC50 [1, 9]: ≤ 20 µM
IC50 [2, 10]: ≤ 20 µM

Structure (SMILES): CCCn1ncc2ccc(Nc3ncc(F)c(Nc4ccc5c(c4)NC(=O)C(C)(C)O5)n3)cc21 [compound 1080]
IC50 ([1]; A549 (lung) cells): ≤ 20 µM
IC50 ([2]; H1299 (lung) cells): ≤ 20 µM

Structure (SMILES): Oc1cccc(Nc2nc(Nc3cccc(-c4ncco4)c3)ncc2F)c1 [compound 885]
IC50 [1, 7]: ≤ 20 µM
IC50 [2, 8]: ≤ 20 µM

Structure (SMILES): Cc1cc(Nc2ncc(F)c(Nc3ccc4c(c3)OC(F)(F)O4)n2)cc(Cl)c1O [compound 566]
IC50 [1, 11]: ≤ 20 µM
IC50 [2, 12]: ≤ 20 µM

Structure (SMILES): COC(=O)N1CCN(c2ccc(Nc3ncc(F)c(Nc4cc(C(C)(C)C)[nH]n4)n3)cc2)CC1 [compound 203]
IC50 [1, 9]: ≤ 20 µM
IC50 [2, 10]: ≤ 20 µM

Structure (SMILES): COc1c(C)cc(Nc2ncc(F)c(Nc3ccc4c(c3)NCC(C)(C)O4)n2)cc1Cl [compound 597]
IC50 [1, 5]: ≤ 20 µM
IC50 [2, 6]: ≤ 20 µM

Structure (SMILES): CNC(=O)c1ccc(Nc2ncc(F)c(Nc3ccc4c(c3)OCCO4)n2)cc1Cl [compound 554]
IC50 [1, 11]: ≤ 20 µM
IC50 [2, 12]: ≤ 20 µM

Structure (SMILES): COc1ccc(Nc2nc(Nc3ccc(CNC(=O)OC(C)(C)C)cc3)ncc2F)cc1Cl [compound 1023]
IC50 [1, 7]: ≤ 20 µM
IC50 [2, 8]: ≤ 20 µM

Structure (SMILES): CN1CCN(c2ccc(Nc3ncc(F)c(NC4CCCC4)n3)cc2)CC1 [compound 134]
IC50 [1, 5]: ≤ 20 µM
IC50 [2, 6]: ≤ 20 µM

Structure (SMILES): O=C1COc2ccc(Nc3nc(Nc4cccc(-c5ncco5)c4)ncc3F)cc2N1 [compound 236]
IC50 [1, 13]: ≤ 20 µM
IC50 [2, 14]: ≤ 20 µM

Structure (SMILES): CC1(C)Oc2ccc(Nc3nc(Nc4ccc5cnn(C(C)(C)CC6CCCCC6)c5c4)ncc3F)cc2NC1=O [compound 1096]
IC50 ([1]; A549 (lung) cells): ≤ 20 µM
IC50 ([2]; H1299 (lung) cells): ≤ 20 µM

Structure (SMILES): CNC(=O)COc1c(C)cc(Nc2ncc(F)c(N(C)c3ccc4c(c3)OCCO4)n2)cc1C [compound 573]
IC50 [1, 11]: ≤ 20 µM
IC50 [2, 12]: ≤ 20 µM

Structure (SMILES): COc1cc(Nc2nc(Nc3cc(C)c(Cl)c(C)c3)ncc2F)cc(C(F)(F)F)c1 [compound 825]
IC50 [1, 3]: ≤ 20 µM
IC50 [2, 4]: ≤ 20 µM

Structure (SMILES): COC(=O)c1cc2cc(Nc3ncc(F)c(Nc4cc(OC)cc(OC)c4)n3)ccc2o1 [compound 656]
IC50 [1, 15]: > 20 µM
IC50 [2, 16]: > 20 µM

Structure (SMILES): Fc1cnc(Nc2cc(-c3ncco3)cc(C(F)(F)F)c2)nc1Nc1cc(-c2ncco2)cc(C(F)(F)F)c1 [compound 892]
IC50 [1, 7]: ≤ 20 µM
IC50 [2, 8]: ≤ 20 µM

Structure (SMILES): CNC(=O)COc1cccc(Nc2nc(Nc3ccc(OCCN(C)C)cc3)ncc2F)c1 [compound 694]
IC50 [1, 3]: ≤ 20 µM
IC50 [2, 4]: ≤ 20 µM

Structure (SMILES): CC(=O)N(C)c1ccc(Nc2ncc(F)c(NC3CCCCC3)n2)cc1 [compound 150]
IC50 [1, 5]: ≤ 20 µM
IC50 [2, 6]: ≤ 20 µM

Structure (SMILES): CC1(C)Oc2ccc(Nc3nc(Nc4cc(CO)cc(CO)c4)ncc3F)cc2NC1=O [compound 320]
IC50 [1, 13]: ≤ 20 µM
IC50 [2, 14]: ≤ 20 µM

Structure (SMILES): Cc1cc(Nc2ncc(F)c(Nc3ccc4c(n3)NCCO4)n2)ccc1N1CCN(C)CC1 [compound 616]
IC50 [1, 5]: ≤ 20 µM
IC50 [2, 6]: ≤ 20 µM

Structure (SMILES): Cc1c(O)cccc1Nc1ncc(F)c(Nc2ccc3c(c2)NC(=O)C(C)(C)O3)n1 [compound 1064]
IC50 ([1]; A549 (lung) cells): ≤ 20 µM
IC50 ([2]; H1299 (lung) cells): ≤ 20 µM

Structure (SMILES): COc1cc(Nc2ncc(F)c(N(C)c3ccc4c(c3)NC(=O)C(C)(C)O4)n2)cc(OC)c1 [compound 323]
IC50 [1, 13]: ≤ 20 µM
IC50 [2, 14]: ≤ 20 µM

Structure (SMILES): Cc1cc(C)cc(Nc2nc(Nc3cc(C)c(Cl)c(C)c3)ncc2F)c1 [compound 900]
IC50 [1, 7]: > 20 µM
IC50 [2, 8]: > 20 µM

Structure (SMILES): COc1ccc(Nc2nc(Nc3cc(Cl)c(O)c(Cl)c3)ncc2F)cc1Cl [compound 828]
IC50 [1, 3]: ≤ 20 µM
IC50 [2, 4]: ≤ 20 µM

Structure (SMILES): CCCCn1ncc2ccc(Nc3ncc(F)c(Nc4ccc(F)c(OC)c4)n3)cc21 [compound 1089]
IC50 ([1]; A549 (lung) cells): ≤ 20 µM
IC50 ([2]; H1299 (lung) cells): ≤ 20 µM

Second part, the compound after the results:

IC50 [1, 5]: ≤ 20 µM
IC50 [2, 6]: ≤ 20 µM
Structure (SMILES): CCOC(=O)N1CCN(c2ccc(Nc3ncc(F)c(N(C)C4CCC4)n3)cc2)CC1 [compound 126]

IC50 [1, 7]: ≤ 20 µM
IC50 [2, 8]: ≤ 20 µM
Structure (SMILES): CCN(CC)CCNC(=O)c1ccc(Nc2ncc(F)c(Nc3ccc(Cl)c(OC)c3)n2)cc1 [compound 1035]

IC50 [1, 3]: ≤ 20 µM
IC50 [2, 4]: > 20 µM
Structure (SMILES): COc1cc(Nc2ncc(F)c(Nc3ccc(OC)c(Cl)c3)n2)cc(C(F)(F)F)c1 [compound 810]

IC50 [1, 3]: > 20 µM
IC50 [2, 4]: > 20 µM
Structure (SMILES): COc1cc(OC)cc(N(C)c2nc(Nc3ccc(Cl)c(OC)c3)ncc2F)c1 [compound 854]

IC50 [1, 5]: ≤ 20 µM
IC50 [2, 6]: ≤ 20 µM
Structure (SMILES): CC(C)Nc1ncc(F)c(N(C)c2ccc3c(c2)OCCO3)n1 [compound 1041]

IC50 [1, 3]: ≤ 20 µM
IC50 [2, 4]: ≤ 20 µM
Structure (SMILES): COc1cc(Nc2ncc(F)c(Nc3ccc(N4CCOCC4)c(Cl)c3)n2)cc(C(F)(F)F)c1 [compound 806]

IC50 [1, 11]: ≤ 20 µM
IC50 [2, 12]: ≤ 20 µM
Structure (SMILES): Fc1cnc(Nc2cc(Cl)cc(Cl)c2)nc1Nc1ccc2c(c1)OC(F)(F)O2 [compound 564]

IC50 [1, 5]: ≤ 20 µM
IC50 [2, 6]: ≤ 20 µM
Structure (SMILES): CC1(C)COc2ccc(Nc3nc(Nc4cccc(-c5ncco5)c4)ncc3F)cc2N1 [compound 590]

IC50 [1, 9]: ≤ 20 µM
IC50 [2, 10]: ≤ 20 µM
Structure (SMILES): CN1CCN(c2ccc(Nc3ncc(F)c(Nc4cc(C5CC5)[nH]n4)n3)cc2Cl)CC1 [compound 212]

IC50 [1, 7]: ≤ 20 µM
IC50 [2, 8]: ≤ 20 µM
Structure (SMILES): CNC(=O)c1ccc(Nc2ncc(F)c(Nc3cc(OC)cc(OC)c3)n2)cc1Cl [compound 872]

IC50 [1, 3]: > 20 µM
IC50 [2, 4]: ≤ 20 µM
Structure (SMILES): COc1ccc(N(C)c2nc(Nc3cccc(-c4cnco4)c3)ncc2F)cc1OC [compound 867]

IC50 [1, 3]: > 20 µM
IC50 [2, 4]: > 20 µM
Structure (SMILES): CNC(=O)COc1cccc(Nc2ncc(F)c(N(C)c3cc(OC)cc(OC)c3)n2)c1 [compound 850]

IC50 [1, 5]: ≤ 20 µM
IC50 [2, 6]: ≤ 20 µM
Structure (SMILES): CC(C)Nc1nc(Nc2ccc(N3CCN(C)CC3)c(Cl)c2)ncc1F [compound 216]

IC50 [1, 5]: ≤ 20 µM
IC50 [2, 6]: ≤ 20 µM
Structure (SMILES): Fc1cnc(Nc2cccc(N3CCOCC3)c2)nc1NC1CCCC1 [compound 135]

IC50 [1, 11]: ≤ 20 µM
IC50 [2, 12]: ≤ 20 µM
Structure (SMILES): CNC(=O)COc1c(C)cc(Nc2ncc(F)c(Nc3ccc4c(c3)OC(F)(F)C(F)(F)O4)n2)cc1C [compound 575]

IC50 [1, 11]: ≤ 20 µM
IC50 [2, 12]: ≤ 20 µM
Structure (SMILES): Oc1c(Cl)cc(Nc2ncc(F)c(Nc3ccc4c(c3)OC(F)(F)O4)n2)cc1Cl [compound 563]

IC50 [1, 11]: ≤ 20 µM
IC50 [2, 12]: ≤ 20 µM
Structure (SMILES): CNC(=O)COc1c(C)cc(Nc2ncc(F)c(Nc3ccc4c(c3)OCCO4)n2)cc1C [compound 569]

IC50 [1, 5]: ≤ 20 µM
IC50 [2, 6]: ≤ 20 µM
Structure (SMILES): CN1CCN(c2ccc(Nc3ncc(F)c(NC(C)(C)C)n3)cc2)CC1 [compound 220]

IC50 [1, 7]: ≤ 20 µM
IC50 [2, 8]: ≤ 20 µM
Structure (SMILES): CNS(=O)(=O)c1ccc(Nc2ncc(F)c(Nc3ccc(OC)c(OC)c3)n2)cc1OC [compound 879]

IC50 [1, 3]: > 20 µM
IC50 [2, 4]: > 20 µM
Structure (SMILES): CCOC(=O)COc1cccc(Nc2nc(Nc3cc(OC)cc(OC)c3)ncc2F)c1 [compound 769]

IC50 [1, 7]: ≤ 20 µM
IC50 [2, 8]: ≤ 20 µM
Structure (SMILES): COc1ccc(Nc2nc(Nc3ccc(C(N)=O)cc3)ncc2F)cc1Cl [compound 1022]

IC50 [1, 5]: ≤ 20 µM
IC50 [2, 6]: ≤ 20 µM
Structure (SMILES): CCN1CCN(c2ccc(Nc3ncc(F)c(NC(C)(C)C)n3)cn2)CC1 [compound 226]

IC50 [1, 5]: ≤ 20 µM
IC50 [2, 6]: ≤ 20 µM
Structure (SMILES): Fc1cnc(Nc2cccc(-c3ncco3)c2)nc1Nc1ccc2c(c1)NCCO2 [compound 589]

IC50 [1, 15]: > 20 µM
IC50 [2, 16]: ≤ 20 µM
Structure (SMILES): CNC(=O)c1cc2cccc(Nc3ncc(F)c(Nc4cc(C)cc(C)c4)n3)c2[nH]1 [compound 668]

IC50 [1, 5]: ≤ 20 µM
IC50 [2, 6]: ≤ 20 µM
Structure (SMILES): CN1CCN(c2ccc(Nc3ncc(F)c(NC4CC(C)(C)N(C)C(C)(C)C4)n3)cc2C(F)(F)F)CC1 [compound 182]

IC50 [1, 7]: ≤ 20 µM
IC50 [2, 8]: ≤ 20 µM
Structure (SMILES): CN(c1ccc(Cl)c(Cl)c1)c1nc(Nc2ccc(C(N)=O)cc2)ncc1F [compound 1030]

IC50 [1, 3]: > 20 µM
IC50 [2, 4]: > 20 µM
Structure (SMILES): COc1ccc(Nc2nc(Nc3cc(C)c(OC)c(Cl)c3)ncc2F)cc1Cl [compound 802]

IC50 ([1]; Homo sapiens, A549 (lung) cells): ≤ 20 µM
IC50 ([2]; Homo sapiens, NCI-H1299, H1299 (lung) cells): > 20 µM
Structure (SMILES): COc1cc(C)c(Nc2ncc(F)c(Nc3ccc4c(c3)NC(C)(C)CO4)n2)cc1Cl [compound 1142]

IC50 [1, 5]: ≤ 20 µM
IC50 [2, 6]: ≤ 20 µM
Structure (SMILES): CC(C)Nc1nc(Nc2ccc(N3CCN(C)CC3)c(C(F)(F)F)c2)ncc1F [compound 218]
